{"source": "BindingDB's records for doi:10.1016/j.bmcl.2017.10.053", "about": "(Vanderbilt University School of Medicine, 2017)", "molecular_target": "T1, Muscarinic acetylcholine receptor M4 (Homo sapiens, UniProt P08173)", "T1 sequence (P08173 whole entry)": "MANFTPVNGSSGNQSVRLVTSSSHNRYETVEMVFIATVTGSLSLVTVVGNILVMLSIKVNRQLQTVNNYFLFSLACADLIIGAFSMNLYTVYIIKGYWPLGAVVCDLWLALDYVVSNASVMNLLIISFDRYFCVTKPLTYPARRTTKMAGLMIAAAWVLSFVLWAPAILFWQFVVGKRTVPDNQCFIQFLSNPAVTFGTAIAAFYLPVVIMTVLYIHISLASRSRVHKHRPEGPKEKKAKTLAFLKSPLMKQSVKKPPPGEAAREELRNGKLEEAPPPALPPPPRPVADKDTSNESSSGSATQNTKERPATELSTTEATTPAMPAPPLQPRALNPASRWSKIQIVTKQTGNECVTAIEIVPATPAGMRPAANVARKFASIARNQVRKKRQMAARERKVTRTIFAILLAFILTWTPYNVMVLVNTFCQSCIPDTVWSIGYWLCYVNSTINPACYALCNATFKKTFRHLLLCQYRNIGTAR", "assay": "Positive allosteric modulation of human M4 receptor expressed in CHO cells co-expressing Gqi5 assessed as increase in acetylcholine-induced calcium mobilization"}
{"smiles": "Cc1nnc2sc(C(=O)N3CC4(CCN(c5cccnc5)C4)C3)c(N)c2c1C", "values": [{"measurement": "EC50", "result": 324, "unit": "nM"}]}
